Assay results: the NIST ThermoML archive (doi:10.1021/je030223f)
Values joined by “and” are separate entries in the source; they are usually repeats but may differ in a detail not shown here. Equal entries are not always repeated. Numbers after ± are expanded uncertainties.

Settings: Liquid, Calculated from knudsen effusion weight loss

## [I][Tm]([I])[I] [thulium triiodide]
887 K
  vapor or sublimation pressure: 0.0001318 ± 5.5e-05 kPa
888 K
  vapor or sublimation pressure: 7.763e-05 ± 5.4e-05 kPa
897 K
  vapor or sublimation pressure: 0.0001585 ± 2.2e-05 kPa
899 K
  vapor or sublimation pressure: 0.0001175 ± 1.3e-05 kPa
902 K
  vapor or sublimation pressure: 0.0002089 ± 2.2e-05 kPa
905 K
  vapor or sublimation pressure: 0.0002344 ± 1.3e-05 kPa and 0.0001698 ± 8.5e-06 kPa
906 K
  vapor or sublimation pressure: 0.0002291 ± 1.7e-05 kPa and 0.0001585 ± 1.5e-05 kPa
907 K
  vapor or sublimation pressure: 0.0002089 ± 2.6e-05 kPa
909 K
  vapor or sublimation pressure: 0.0001585 ± 2.1e-05 kPa
911 K
  vapor or sublimation pressure: 0.0002884 ± 5.6e-05 kPa
912 K
  vapor or sublimation pressure: 0.0003162 ± 1.7e-05 kPa and 0.0002089 ± 1.7e-05 kPa
914 K
  vapor or sublimation pressure: 0.000309 ± 1.7e-05 kPa and 0.0002344 ± 1.4e-05 kPa
916 K
  vapor or sublimation pressure: 0.0002884 ± 2.9e-05 kPa and 0.0002089 ± 3e-05 kPa
920 K
  vapor or sublimation pressure: 0.0004467 ± 3.2e-05 kPa and 0.0004571 ± 3.3e-05 kPa
921 K
  vapor or sublimation pressure: 0.0003715 ± 6.8e-05 kPa
922 K
  vapor or sublimation pressure: 0.0003162 ± 2.3e-05 kPa
923 K
  vapor or sublimation pressure: 0.0003388 ± 3.8e-05 kPa
925 K
  vapor or sublimation pressure: 0.0004169 ± 3.8e-05 kPa and 0.0002884 ± 3.8e-05 kPa
928 K
  vapor or sublimation pressure: 0.0005012 ± 4.9e-05 kPa
930 K
  vapor or sublimation pressure: 0.000631 ± 3.5e-05 kPa and 0.0006607 ± 3.5e-05 kPa
931 K
  vapor or sublimation pressure: 0.0004169 ± 5.1e-05 kPa
932 K
  vapor or sublimation pressure: 0.000537 ± 3e-05 kPa and 0.0004677 ± 2.7e-05 kPa
933 K
  vapor or sublimation pressure: 0.000389 ± 4.9e-05 kPa
936 K
  vapor or sublimation pressure: 0.0006607 ± 9.5e-05 kPa
938 K
  vapor or sublimation pressure: 0.0008318 ± 4.9e-05 kPa and 0.0005495 ± 2.8e-05 kPa
939 K
  vapor or sublimation pressure: 0.0007079 ± 0.00016 kPa and 0.000912 ± 0.00016 kPa
940 K
  vapor or sublimation pressure: 0.0005248 ± 3.5e-05 kPa
941 K
  vapor or sublimation pressure: 0.0006607 ± 0.00014 kPa
946 K
  vapor or sublimation pressure: 0.000955 ± 0.0002 kPa and 0.001122 ± 0.00038 kPa
947 K
  vapor or sublimation pressure: 0.0007586 ± 0.0001 kPa
948 K
  vapor or sublimation pressure: 0.001148 ± 0.00012 kPa and 0.000955 ± 5.1e-05 kPa
949 K
  vapor or sublimation pressure: 0.0007244 ± 4.8e-05 kPa
951 K
  vapor or sublimation pressure: 0.0009772 ± 0.00012 kPa
953 K
  vapor or sublimation pressure: 0.001148 ± 0.0002 kPa
954 K
  vapor or sublimation pressure: 0.001479 ± 0.00018 kPa
955 K
  vapor or sublimation pressure: 0.001318 ± 0.00015 kPa and 0.001047 ± 0.00012 kPa
956 K
  vapor or sublimation pressure: 0.001585 ± 0.00021 kPa and 0.0009333 ± 0.00017 kPa
959 K
  vapor or sublimation pressure: 0.00182 ± 0.00021 kPa
960 K
  vapor or sublimation pressure: 0.001288 ± 0.00023 kPa
961 K
  vapor or sublimation pressure: 0.001445 ± 0.00022 kPa and 0.001905 ± 0.00025 kPa
963 K
  vapor or sublimation pressure: 0.001738 ± 0.0002 kPa and 0.001349 ± 0.00016 kPa
964 K
  vapor or sublimation pressure: 0.00123 ± 0.00021 kPa
966 K
  vapor or sublimation pressure: 0.002089 ± 0.00045 kPa and 0.002291 ± 0.00047 kPa and 0.001585 ± 0.00042 kPa
968 K
  vapor or sublimation pressure: 0.002754 ± 0.00034 kPa
969 K
  vapor or sublimation pressure: 0.001862 ± 0.00024 kPa
970 K
  vapor or sublimation pressure: 0.002512 ± 0.00039 kPa
971 K
  vapor or sublimation pressure: 0.002344 ± 0.00028 kPa and 0.001585 ± 0.00019 kPa
973 K
  vapor or sublimation pressure: 0.00257 ± 0.00031 kPa and 0.001862 ± 0.00022 kPa
975 K
  vapor or sublimation pressure: 0.002512 ± 0.00042 kPa
976 K
  vapor or sublimation pressure: 0.003631 ± 0.00052 kPa and 0.002951 ± 0.00046 kPa and 0.002138 ± 0.00042 kPa
978 K
  vapor or sublimation pressure: 0.003388 ± 0.00045 kPa
980 K
  vapor or sublimation pressure: 0.00309 ± 0.00043 kPa and 0.002042 ± 0.00035 kPa
981 K
  vapor or sublimation pressure: 0.002818 ± 0.00059 kPa and 0.002399 ± 0.00058 kPa
983 K
  vapor or sublimation pressure: 0.004365 ± 0.00058 kPa
984 K
  vapor or sublimation pressure: 0.002754 ± 0.00038 kPa
987 K
  vapor or sublimation pressure: 0.004571 ± 0.00071 kPa
988 K
  vapor or sublimation pressure: 0.00389 ± 0.001 kPa
989 K
  vapor or sublimation pressure: 0.002818 ± 0.00074 kPa and 0.00309 ± 0.00074 kPa
991 K
  vapor or sublimation pressure: 0.005495 ± 0.00077 kPa and 0.005012 ± 0.0007 kPa
993 K
  vapor or sublimation pressure: 0.003548 ± 0.00054 kPa
999 K
  vapor or sublimation pressure: 0.007079 ± 0.001 kPa and 0.00631 ± 0.0009 kPa
1002 K
  vapor or sublimation pressure: 0.004898 ± 0.00075 kPa
1006 K
  vapor or sublimation pressure: 0.009333 ± 0.0016 kPa
1008 K
  vapor or sublimation pressure: 0.00871 ± 0.0013 kPa
1014 K
  vapor or sublimation pressure: 0.01122 ± 0.0017 kPa
1017 K
  vapor or sublimation pressure: 0.01148 ± 0.0018 kPa
1024 K
  vapor or sublimation pressure: 0.01514 ± 0.0025 kPa
1025 K
  vapor or sublimation pressure: 0.01445 ± 0.0024 kPa
1032 K
  vapor or sublimation pressure: 0.01995 ± 0.0034 kPa
1034 K
  vapor or sublimation pressure: 0.0195 ± 0.0032 kPa
1043 K
  vapor or sublimation pressure: 0.02818 ± 0.005 kPa and 0.0257 ± 0.0045 kPa
1051 K
  vapor or sublimation pressure: 0.03715 ± 0.0067 kPa and 0.03311 ± 0.0059 kPa
